One compound from patent US8551489B2, “Methods for the treatment of cancers” (MUSC Foundation for Research Development, priority 2008, dated 2013) can be followed below.

SMILES strings stand for the structures. “Also recorded” adds a separate entry of the source.

The subject of one test is T24 cells. Description: Western blot of FAK and ERK phosphorylation in T24 cells. The test is classed as cell-based, human. To be noted: serum starved 12 hrs, treated 1 hr. The method, then: FIG. 6. Effect of TP receptor agonist (U46619) and antagonist (PTXA2) treatment on phosphorylation of FAK and ERK. T24 cells were serum starved for 12 hrs then treated with PTXA2 or U46619 for 1 hr. Tyrosine phosphorylation of FAK was assessed with western blot analysis on […] of cell lysate using anti-FAK pY397 (BD Bioscience) and pERK using a pERK specific antibody.
(§1) Tumor and normal bladder tissues were snap-frozen in liquid nitrogen within 30 minutes after the surgery. Frozen sections were stained with hematoxylin and eosin and samples identified that had at least 70% tumor cells were selected for further studies. Pulverized tissue powders were lysed in RIPA buffer (150 mM NaCl, 50 mM Tris-HCl [pH 8.0], 1% Triton X100, 0.1% SDS, 1% deoxycholate and protease inhibitor cocktail [Complete Protease Inhibitors, Roche]) for 15 minutes on ice. Equal amounts of total protein (40 μg) were resolved by 12% SDS-PAGE and subjected to Western blot analyses using ECL system (Amersham-Pharmacia). Screening Western blots for TP-α and TP-β isoform expression in bladder cancer cell lines was done using rabbit polyclonal antibodies against TP-α or TP-β (described above). SVHUC cells stably transfected with TP-α or TP-β plasmids were screened for PCNA, tubulin, GAPDH, FAK, pFAK, ERK, pERK protein (Santa Cruz) and ICAM-1 (Abcam).

The subject of a further test is SV-HUC cells. Description: Western blot of FAK and ERK phosphorylation in SV-HUC cells. The class given is cell-based, human. To be noted: SV-HUC cells (TP-α expressor), not transfected. As for the experimental part:
as §1
For orientation: Immunoblotting shows a protein as a band on a membrane.

The next test deals with T1, TP-β (Homo sapiens, UniProt P21731).
T1 construct: expressed in transfected cells
The test is described as follows: Phosphorylation of ERK and FAK in SV-HUC cells transfected with TP-β. The test is classed as cell-based. As for the experimental part: FIG. 7. Effects of U46619 and PTXA2 on phosphorylation of ERK and FAK. SV-HUC cells transfected with pcDNA3, TP-α or TP-β data are representative of 3 experiments.
as §1
SV-HUC cells were grown to 80% confluence and transfected with 2 μg of pcDNA3 vector encoding either the TP-α or TP-β receptor isoforms. Transfection was performed in 6-well plates using the Fugene reagent (Roche) according to the manufacturer's instructions. After 72 hours post-transfection, cells were selected with 500 μg/ml G418 (Roche) and stable pools isolated after 14 days.

The next test deals with PTN mRNA. The test is described as follows: PTN mRNA expression after receptor antagonist / agonist. The class given is cell-based. To be noted: incubation with receptor antagonist. The text has this:
FIGS. 14A-F. TP-β regulation of pleiotrophin (PTN). […] (FIG. 14D) PTN mRNA reduction after PTXA2 treatment. The PTN mRNA levels are restored following the co-treatment with U46619. (FIG. 14E) shRNAi mediated knockdown of β-arrestin-2 reduced agonist dependent increase in PTN mRNA in HT-1376 cells (PTEN:wt), and UM-UC-3 cells (PTEN:minus). (FIG. 14F) Effect of U46619 on JNK1/2 and FOXO3a phosphorylation.

T1 sequence (P21731 1-407 isoform P21731-2): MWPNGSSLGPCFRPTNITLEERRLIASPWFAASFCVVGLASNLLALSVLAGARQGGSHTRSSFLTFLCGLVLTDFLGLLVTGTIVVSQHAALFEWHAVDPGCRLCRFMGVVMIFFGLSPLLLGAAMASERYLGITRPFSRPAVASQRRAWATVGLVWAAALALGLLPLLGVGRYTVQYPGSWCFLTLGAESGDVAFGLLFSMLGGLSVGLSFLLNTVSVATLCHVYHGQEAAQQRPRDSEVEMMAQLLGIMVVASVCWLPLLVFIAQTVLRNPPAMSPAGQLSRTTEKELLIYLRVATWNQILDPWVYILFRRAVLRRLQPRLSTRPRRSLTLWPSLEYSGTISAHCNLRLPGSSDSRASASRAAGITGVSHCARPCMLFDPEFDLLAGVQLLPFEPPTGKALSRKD

`CCCCC[C@@H](O)/C=C/[C@H]1C[C@H]2C[C@@H]([C@@H]1C/C=C\CCCC(=O)O)C2(C)C` [PTXA2]: the results for the “phospho-ERK and phospho-FAK levels” value with T24 cells and in the test on SV-HUC cells were “reduction in the elevated basal levels; also recorded: significantly reduced” and “no effect”, respectively. For the same compound, the “U46619-stimulated increase in pERK1/2 and pFAK” value on TP-β (SV-HUC cells transfected with TP-β, antagonist added) is “blocked”. For the same compound, the “basal levels of pFAK and pERK” value at TP-β (TP-β transfected SV-HUC cells, data not shown) is on record as “decreased the basal levels”. The “PTN mRNA expression” value with PTN mRNA is on record as “reduced PTN mRNA expression”.
